# Data published in ChEMBL document CHEMBL3885881, “DrugMatrix”.
# Species: Rattus norvegicus
# Assay: DrugMatrix - Regimen: Daily Repeat
# Format: toxicity, organism-based, Sprague-Dawley
# Parameters: regimen Daily Repeat, gender Male, age 6-8 weeks
# Conditions: in vivo, po, 1500 mg/kg, route oral GAVAGE, dose level High, vehicle .5 % CMC; for ABSOLUTE BASOPHIL / ABSOLUTE EOSINOPHIL / ABSOLUTE LYMPHOCYTE / ABSOLUTE MONOCYTE / ABSOLUTE SEGMENTED NEUTROPHIL / BASOPHIL / EOSINOPHIL / ERYTHROCYTE COUNT / HEMATOCRIT / HEMOGLOBIN / LEUKOCYTE COUNT / LYMPHOCYTE / MEAN CORPUSCULAR HEMOGLOBIN / MEAN CORPUSCULAR HEMOGLOBIN CONCENTRATION / MEAN CORPUSCULAR VOLUME / MONOCYTE / NEUTROPHIL / NUCLEATED RED BLOOD CELLS / PLATELET COUNT: tissue Blood
# [1] = 72 h, tissue Plasma, time 3 day
# [2] = 120 h, tissue Plasma, time 5 day
smiles,measurement,setting,value
CC(C)=CCC/C(C)=C/CO [GERANIOL],ABSOLUTE BASOPHIL,"72 h, time 3 day",0 CELLS/uL
same,ABSOLUTE EOSINOPHIL,"72 h, time 3 day",0 CELLS/uL
same,ABSOLUTE LYMPHOCYTE,"72 h, time 3 day",15609.33 CELLS/uL
same,ABSOLUTE MONOCYTE,"72 h, time 3 day",78.67 CELLS/uL
same,ABSOLUTE SEGMENTED NEUTROPHIL,"72 h, time 3 day",1378.67 CELLS/uL
same,BASOPHIL,"72 h, time 3 day",0%
same,EOSINOPHIL,"72 h, time 3 day",0%
same,ERYTHROCYTE COUNT,"72 h, time 3 day",5.7 x10E6/uL
same,HEMATOCRIT,"72 h, time 3 day",37.23%
same,HEMOGLOBIN,"72 h, time 3 day",14.37 G/DL
same,LEUKOCYTE COUNT,"72 h, time 3 day",17.07 x10E3/uL
same,LYMPHOCYTE,"72 h, time 3 day",92%
same,MEAN CORPUSCULAR HEMOGLOBIN,"72 h, time 3 day",25.2 pg
same,MEAN CORPUSCULAR HEMOGLOBIN CONCENTRATION,"72 h, time 3 day",38.57 G/DL
same,MEAN CORPUSCULAR VOLUME,"72 h, time 3 day",65.37 fL
same,MONOCYTE,"72 h, time 3 day",0.33%
same,NEUTROPHIL,"72 h, time 3 day",7.67%
same,NUCLEATED RED BLOOD CELLS,"72 h, time 3 day",0.33 /100WBC
same,PLATELET COUNT,"72 h, time 3 day",1276 x10E3/uL
same,ALANINE AMINOTRANSFERASE,[1],47.33 u/L
same,ALBUMIN,[1],4.4 G/DL
same,ALKALINE PHOSPHATASE,[1],442 u/L
same,ASPARTATE AMINOTRANSFERASE,[1],82 u/L
same,BLOOD UREA NITROGEN,[1],13 mg/dL
same,CARBON DIOXIDE,[1],29 mmol/L
same,CHLORIDE,[1],100.67 MEQ/L
same,CHOLESTEROL,[1],46.33 mg/dL
same,CREATINE PHOSPHOKINASE,[1],471.33 u/L
same,CREATININE,[1],0.25 mg/dL
same,GLUCOSE,[1],162 mg/dL
same,LACTATE DEHYDROGENASE,[1],193.67 u/L
same,LIPASE,[1],9 u/L
same,PHOSPHORUS,[1],14.7 mg/dL
same,POTASSIUM,[1],7.11 MEQ/L
same,SODIUM,[1],143.87 MEQ/L
same,TOTAL BILIRUBIN,[1],0.13 mg/dL
same,TOTAL PROTEIN,[1],5.93 G/DL
same,URIC ACID,[1],2.07 mg/dL
same,ABSOLUTE BASOPHIL,"120 h, time 5 day",0 CELLS/uL
same,ABSOLUTE EOSINOPHIL,"120 h, time 5 day",0 CELLS/uL
same,ABSOLUTE LYMPHOCYTE,"120 h, time 5 day",19247.33 CELLS/uL
same,ABSOLUTE MONOCYTE,"120 h, time 5 day",1179 CELLS/uL
same,ABSOLUTE SEGMENTED NEUTROPHIL,"120 h, time 5 day",2373.67 CELLS/uL
same,BASOPHIL,"120 h, time 5 day",0%
same,EOSINOPHIL,"120 h, time 5 day",0%
same,ERYTHROCYTE COUNT,"120 h, time 5 day",6.01 x10E6/uL
same,HEMATOCRIT,"120 h, time 5 day",36.67%
same,HEMOGLOBIN,"120 h, time 5 day",14.67 G/DL
same,LEUKOCYTE COUNT,"120 h, time 5 day",22.8 x10E3/uL
same,LYMPHOCYTE,"120 h, time 5 day",84.67%
same,MEAN CORPUSCULAR HEMOGLOBIN,"120 h, time 5 day",24.53 pg
same,MEAN CORPUSCULAR HEMOGLOBIN CONCENTRATION,"120 h, time 5 day",40.03 G/DL
same,MEAN CORPUSCULAR VOLUME,"120 h, time 5 day",61.2 fL
same,MONOCYTE,"120 h, time 5 day",5%
same,NEUTROPHIL,"120 h, time 5 day",10.33%
same,NUCLEATED RED BLOOD CELLS,"120 h, time 5 day",0 /100WBC
same,PLATELET COUNT,"120 h, time 5 day",1333 x10E3/uL
same,ALANINE AMINOTRANSFERASE,[2],63 u/L
same,ALBUMIN,[2],4.63 G/DL
same,ALKALINE PHOSPHATASE,[2],302.67 u/L
same,ASPARTATE AMINOTRANSFERASE,[2],95.67 u/L
same,BLOOD UREA NITROGEN,[2],18 mg/dL
same,CARBON DIOXIDE,[2],32 mmol/L
same,CHLORIDE,[2],102.33 MEQ/L
same,CHOLESTEROL,[2],85.67 mg/dL
same,CREATINE PHOSPHOKINASE,[2],441 u/L
same,CREATININE,[2],0.16 mg/dL
same,GLUCOSE,[2],143 mg/dL
same,LACTATE DEHYDROGENASE,[2],772 u/L
same,LIPASE,[2],10 u/L
same,PHOSPHORUS,[2],12.2 mg/dL
same,POTASSIUM,[2],6.32 MEQ/L
same,SODIUM,[2],142.2 MEQ/L
same,TOTAL BILIRUBIN,[2],0.1 mg/dL
same,URIC ACID,[2],2 mg/dL
